Format in all cases: functional
Test [1] relates to B16. The test is described as follows: Inhibition of melanogenesis in mouse B16 cells assessed as intracellular melanogenesis activity at 6.25 uM after 72 hrs relative to control. Details: scale not given: the % may be the effect or the level left.
Test [2] relates to B16. The test is described as follows: Inhibition of melanogenesis in mouse B16 cells assessed as extracellular melanogenesis activity at 6.25 uM after 72 hrs relative to control. Details: scale not given: the % may be the effect or the level left.
The subject of test [3] is B16. Description: Inhibition of melanogenesis in mouse B16 cells assessed as extracellular melanogenesis activity at 50 uM after 72 hrs relative to control. Details: scale not given: the % may be the effect or the level left.
Test [4] concerns B16. The test is described as follows: Antiproliferative activity against mouse B16 cells assessed as cell proliferation level at 25 uM after 72 hrs by MTT assay relative to control. A general note: Formazan colour is commonly taken as a measure of viable cells.
In test [5] the test system is B16. The test is described as follows: Inhibition of melanogenesis in mouse B16 cells assessed as intracellular melanogenesis activity at 12.5 uM after 72 hrs relative to control. Set-up: scale not given: the % may be the effect or the level left.
For test [6], the system named is B16. Description: Inhibition of melanogenesis in mouse B16 cells assessed as intracellular melanogenesis activity at 25 uM after 72 hrs relative to control. Details: scale not given: the % may be the effect or the level left.
For test [7], the system named is B16. Description: Inhibition of melanogenesis in mouse B16 cells assessed as intracellular melanogenesis activity at 50 uM after 72 hrs relative to control. Details: scale not given: the % may be the effect or the level left.
The test system of test [8] is B16. The test is described as follows: Antiproliferative activity against mouse B16 cells assessed as cell proliferation level at 6.25 uM after 72 hrs by MTT assay relative to control.
Test [9] concerns B16. The test is described as follows: Inhibition of melanogenesis in mouse B16 cells assessed as extracellular melanogenesis activity at 25 uM after 72 hrs relative to control. Set-up: scale not given: the % may be the effect or the level left.
The subject of test [10] is B16. Description: Antiproliferative activity against mouse B16 cells assessed as cell proliferation level at 12.5 uM after 72 hrs by MTT assay relative to control.
Test [11] deals with B16. Description: Antiproliferative activity against mouse B16 cells assessed as cell proliferation level at 50 uM after 72 hrs by MTT assay relative to control.
The subject of test [12] is B16. The test is described as follows: Inhibition of melanogenesis in mouse B16 cells assessed as extracellular melanogenesis activity at 12.5 uM after 72 hrs relative to control. Details: scale not given: the % may be the effect or the level left.
The subject of test [13] is B16. The test is described as follows: Inhibition of melanogenesis in mouse B16 cells assessed as extracellular melanogenesis activity at 730 uM after 72 hrs relative to control. Details: scale not given: the % may be the effect or the level left.
Test [14] concerns B16. The test is described as follows: Inhibition of melanogenesis in mouse B16 cells assessed as intracellular melanogenesis activity at 730 uM after 72 hrs relative to control. Details: scale not given: the % may be the effect or the level left.
Test [15] deals with B16. Description: Antiproliferative activity against mouse B16 cells assessed as cell proliferation level at 730 uM after 72 hrs by MTT assay relative to control.

Take `COc1cc(O)c2c(=O)cc(-c3ccc(O)c(O)c3)oc2c1`: the Activity in the test with B16 [1] stood at 108%; with B16 [2], 107%; with B16 [3] it was 16%; in the test with B16 [4] it was 55%; in the test with B16 [5], 87%; in the test on B16 [6], 50%. Also, the Activity with B16 [7] is on record as 50%; in the test with B16 [8], 98%; in the test with B16 [9], 14%; in the test with B16 [10], 85%; in the test on B16 [11], 41%; with B16 [12] it was 51%.
`OC[C@H]1O[C@@H](Oc2ccc(O)cc2)[C@H](O)[C@@H](O)[C@@H]1O` [ARBUTIN]: the Activity in the test on B16 [13] is 45%; with B16 [14] it was 89%; in the test on B16 [15], 105%.
With `O=c1cc(-c2ccc(O)c(O)c2)oc2cc(O)cc(O)c12` [LUTEOLIN], the Activity in the test on B16 [1] is recorded as 122%; in the test on B16 [2], 114%; in the test with B16 [3], 16%; in the test with B16 [4], 68%; in the test on B16 [5], 118%; in the test with B16 [6] it was 66%. The Activity in the test with B16 [7] is reported as 55%; in the test with B16 [8], 106%; in the test with B16 [9], 15%; in the test with B16 [10], 110%; with B16 [11], 34%; with B16 [12] it was 109%.

For the origin of these results see ChEMBL document CHEMBL4118264, “Selective synthesis of 7-O-substituted luteolin derivatives and their melanonenesis and proliferation inhibitory activity in B16 melanoma cells” (2018).
